Data on 16 compounds can be found in ChEMBL document CHEMBL3991601, “The target landscape of clinical kinase drugs” (Science, 2017).

Experiment [1] addresses T1, Non-receptor tyrosine-protein kinase TNK1 (Homo sapiens, UniProt Q13470).
T1 sequence (Q13470 whole entry): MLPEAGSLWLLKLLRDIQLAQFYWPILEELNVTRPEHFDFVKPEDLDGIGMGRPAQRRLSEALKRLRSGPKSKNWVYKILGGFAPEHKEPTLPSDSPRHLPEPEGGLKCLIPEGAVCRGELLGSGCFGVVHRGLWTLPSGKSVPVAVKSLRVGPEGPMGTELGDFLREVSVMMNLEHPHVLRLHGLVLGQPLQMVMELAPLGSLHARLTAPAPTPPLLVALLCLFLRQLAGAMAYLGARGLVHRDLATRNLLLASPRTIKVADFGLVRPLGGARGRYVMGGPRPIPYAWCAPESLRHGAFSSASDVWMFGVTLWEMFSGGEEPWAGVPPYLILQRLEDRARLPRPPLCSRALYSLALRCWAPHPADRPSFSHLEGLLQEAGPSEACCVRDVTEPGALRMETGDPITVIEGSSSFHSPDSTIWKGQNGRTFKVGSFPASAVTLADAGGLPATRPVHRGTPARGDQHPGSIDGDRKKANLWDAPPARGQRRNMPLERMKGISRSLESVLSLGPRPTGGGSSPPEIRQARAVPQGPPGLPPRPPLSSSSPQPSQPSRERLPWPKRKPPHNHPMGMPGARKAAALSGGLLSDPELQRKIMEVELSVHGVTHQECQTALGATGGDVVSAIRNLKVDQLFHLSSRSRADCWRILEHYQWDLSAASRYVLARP

Experiment [2] deals with ATP-dependent RNA helicase DDX3X (Homo sapiens, UniProt O00571).
The target of experiment [3] is T2, Phosphorylase b kinase gamma catalytic chain, liver/testis isoform (Homo sapiens, UniProt P15735).
T2 sequence (P15735 whole entry): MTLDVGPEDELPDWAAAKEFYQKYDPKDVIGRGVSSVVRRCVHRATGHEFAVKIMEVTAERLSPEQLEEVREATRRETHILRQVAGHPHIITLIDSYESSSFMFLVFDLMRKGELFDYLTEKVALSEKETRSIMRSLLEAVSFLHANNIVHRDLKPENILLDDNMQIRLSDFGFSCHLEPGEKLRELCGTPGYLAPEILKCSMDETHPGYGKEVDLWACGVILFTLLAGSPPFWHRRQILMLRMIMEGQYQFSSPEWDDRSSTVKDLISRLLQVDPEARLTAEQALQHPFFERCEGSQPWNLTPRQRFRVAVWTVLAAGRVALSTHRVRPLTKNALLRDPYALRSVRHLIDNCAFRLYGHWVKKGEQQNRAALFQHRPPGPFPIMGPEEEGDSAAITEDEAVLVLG

The target of experiment [4] is T3, NUAK family SNF1-like kinase 2 (Homo sapiens, UniProt Q9H093).
T3 sequence (Q9H093 whole entry): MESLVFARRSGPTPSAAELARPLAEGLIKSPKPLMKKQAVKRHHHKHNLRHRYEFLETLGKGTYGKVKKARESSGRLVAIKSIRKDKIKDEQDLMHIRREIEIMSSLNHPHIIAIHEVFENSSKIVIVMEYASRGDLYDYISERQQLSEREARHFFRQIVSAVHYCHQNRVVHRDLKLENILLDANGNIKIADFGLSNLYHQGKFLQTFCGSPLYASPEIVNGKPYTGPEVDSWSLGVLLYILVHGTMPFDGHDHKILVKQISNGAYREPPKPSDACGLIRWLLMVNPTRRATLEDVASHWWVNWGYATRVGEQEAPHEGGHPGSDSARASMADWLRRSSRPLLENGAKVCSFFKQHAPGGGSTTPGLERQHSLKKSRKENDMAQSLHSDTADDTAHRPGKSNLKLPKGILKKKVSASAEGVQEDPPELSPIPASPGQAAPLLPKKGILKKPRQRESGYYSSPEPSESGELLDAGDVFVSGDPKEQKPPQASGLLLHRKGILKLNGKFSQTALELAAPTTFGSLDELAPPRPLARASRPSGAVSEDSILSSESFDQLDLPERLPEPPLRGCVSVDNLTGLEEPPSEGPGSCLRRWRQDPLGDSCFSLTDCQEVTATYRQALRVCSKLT

Experiment [5] concerns the target Mitogen-activated protein kinase kinase kinase kinase 1 (Homo sapiens, UniProt Q92918).
Experiment [6] has as its target Receptor-interacting serine/threonine-protein kinase 3 (Homo sapiens, UniProt Q9Y572).
Experiment [7] has as its target Casein kinase I isoform gamma-1 (Homo sapiens, UniProt Q9HCP0).
Experiment [8] deals with T4, General transcription and DNA repair factor IIH helicase subunit XPD (Homo sapiens, UniProt P18074).
T4 sequence (P18074 whole entry): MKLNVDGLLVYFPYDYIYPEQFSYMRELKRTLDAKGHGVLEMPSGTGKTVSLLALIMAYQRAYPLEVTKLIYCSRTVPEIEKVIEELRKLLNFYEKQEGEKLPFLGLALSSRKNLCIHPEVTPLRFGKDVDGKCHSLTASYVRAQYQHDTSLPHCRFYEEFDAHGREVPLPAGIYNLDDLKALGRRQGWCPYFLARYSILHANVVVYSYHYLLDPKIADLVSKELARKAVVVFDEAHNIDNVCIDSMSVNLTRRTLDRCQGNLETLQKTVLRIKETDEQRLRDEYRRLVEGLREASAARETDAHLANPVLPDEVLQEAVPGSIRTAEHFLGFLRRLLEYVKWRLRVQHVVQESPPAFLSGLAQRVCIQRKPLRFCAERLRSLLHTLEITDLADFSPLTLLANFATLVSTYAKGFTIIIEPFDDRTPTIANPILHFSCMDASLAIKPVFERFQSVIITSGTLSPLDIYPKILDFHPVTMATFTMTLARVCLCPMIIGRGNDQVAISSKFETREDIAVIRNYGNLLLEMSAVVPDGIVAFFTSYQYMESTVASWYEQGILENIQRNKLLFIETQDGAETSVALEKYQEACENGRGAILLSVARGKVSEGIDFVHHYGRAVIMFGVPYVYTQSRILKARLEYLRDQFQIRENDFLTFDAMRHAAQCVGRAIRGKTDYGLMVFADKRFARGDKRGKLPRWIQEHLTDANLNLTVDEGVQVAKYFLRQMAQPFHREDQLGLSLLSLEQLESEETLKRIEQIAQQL
To be noted: read-out: Kd apparent; k-562, colo 205, sk-n-be(2) and mv-4-11.

The source made the active and inactive calls. Rule as the data show it, for most assays here: actives have a measured Kd and inactives only a lower limit.
Also: in the data inactive means no Kd found up to 30 µM.

Chain of Mitogen-activated protein kinase kinase kinase kinase 1 (Q92918 whole entry): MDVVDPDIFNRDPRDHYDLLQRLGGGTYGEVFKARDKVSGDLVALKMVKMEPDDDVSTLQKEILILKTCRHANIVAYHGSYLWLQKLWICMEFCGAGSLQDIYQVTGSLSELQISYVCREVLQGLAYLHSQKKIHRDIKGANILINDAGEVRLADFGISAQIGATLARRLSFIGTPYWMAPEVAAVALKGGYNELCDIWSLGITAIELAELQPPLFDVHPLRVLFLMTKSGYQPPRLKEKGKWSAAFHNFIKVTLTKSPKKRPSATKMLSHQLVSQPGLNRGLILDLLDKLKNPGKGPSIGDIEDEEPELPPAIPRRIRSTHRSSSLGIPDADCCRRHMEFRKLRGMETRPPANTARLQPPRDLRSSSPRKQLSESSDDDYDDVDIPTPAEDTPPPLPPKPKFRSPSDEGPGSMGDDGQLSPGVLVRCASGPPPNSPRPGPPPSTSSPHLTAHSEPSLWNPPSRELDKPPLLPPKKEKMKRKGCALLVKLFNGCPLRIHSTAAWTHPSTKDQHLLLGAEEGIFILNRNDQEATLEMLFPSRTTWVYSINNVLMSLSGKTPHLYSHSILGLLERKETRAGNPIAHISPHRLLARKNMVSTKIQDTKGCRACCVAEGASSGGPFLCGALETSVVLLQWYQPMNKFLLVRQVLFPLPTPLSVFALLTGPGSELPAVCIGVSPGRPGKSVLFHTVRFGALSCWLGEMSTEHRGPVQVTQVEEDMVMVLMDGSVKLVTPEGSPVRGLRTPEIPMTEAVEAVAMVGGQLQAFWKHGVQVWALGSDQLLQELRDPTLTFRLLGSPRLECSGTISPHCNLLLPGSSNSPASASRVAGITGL
Chain of ATP-dependent RNA helicase DDX3X (O00571 whole entry, canonical isoform): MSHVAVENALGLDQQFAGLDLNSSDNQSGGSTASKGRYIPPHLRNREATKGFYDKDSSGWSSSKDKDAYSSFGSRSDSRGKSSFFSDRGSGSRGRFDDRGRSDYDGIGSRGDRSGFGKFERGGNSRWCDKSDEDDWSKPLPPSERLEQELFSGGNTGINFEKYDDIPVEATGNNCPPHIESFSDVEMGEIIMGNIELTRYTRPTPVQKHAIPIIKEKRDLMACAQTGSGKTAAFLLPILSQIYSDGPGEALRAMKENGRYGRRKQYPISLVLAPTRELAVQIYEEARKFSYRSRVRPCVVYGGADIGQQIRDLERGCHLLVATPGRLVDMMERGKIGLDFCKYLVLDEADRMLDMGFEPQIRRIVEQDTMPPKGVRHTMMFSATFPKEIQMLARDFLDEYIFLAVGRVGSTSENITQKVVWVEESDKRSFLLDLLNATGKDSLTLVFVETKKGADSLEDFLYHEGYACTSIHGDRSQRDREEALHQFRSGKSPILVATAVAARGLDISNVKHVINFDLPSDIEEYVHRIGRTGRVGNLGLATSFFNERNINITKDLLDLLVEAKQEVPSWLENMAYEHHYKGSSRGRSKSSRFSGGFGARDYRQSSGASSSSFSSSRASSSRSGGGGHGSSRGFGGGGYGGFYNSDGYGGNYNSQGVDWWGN
Chain of Casein kinase I isoform gamma-1 (Q9HCP0 whole entry, canonical isoform): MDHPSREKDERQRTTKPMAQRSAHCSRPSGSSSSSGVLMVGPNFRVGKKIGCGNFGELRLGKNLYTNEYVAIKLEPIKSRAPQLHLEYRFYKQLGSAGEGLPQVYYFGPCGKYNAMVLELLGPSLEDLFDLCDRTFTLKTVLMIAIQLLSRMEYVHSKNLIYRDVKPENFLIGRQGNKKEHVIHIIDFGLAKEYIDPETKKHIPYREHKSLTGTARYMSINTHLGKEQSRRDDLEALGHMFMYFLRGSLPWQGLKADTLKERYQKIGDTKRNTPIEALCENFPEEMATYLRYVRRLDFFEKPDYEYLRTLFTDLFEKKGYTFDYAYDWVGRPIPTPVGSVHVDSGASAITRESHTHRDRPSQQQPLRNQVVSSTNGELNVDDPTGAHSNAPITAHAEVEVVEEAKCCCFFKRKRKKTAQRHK
Chain of Receptor-interacting serine/threonine-protein kinase 3 (Q9Y572 whole entry, canonical isoform): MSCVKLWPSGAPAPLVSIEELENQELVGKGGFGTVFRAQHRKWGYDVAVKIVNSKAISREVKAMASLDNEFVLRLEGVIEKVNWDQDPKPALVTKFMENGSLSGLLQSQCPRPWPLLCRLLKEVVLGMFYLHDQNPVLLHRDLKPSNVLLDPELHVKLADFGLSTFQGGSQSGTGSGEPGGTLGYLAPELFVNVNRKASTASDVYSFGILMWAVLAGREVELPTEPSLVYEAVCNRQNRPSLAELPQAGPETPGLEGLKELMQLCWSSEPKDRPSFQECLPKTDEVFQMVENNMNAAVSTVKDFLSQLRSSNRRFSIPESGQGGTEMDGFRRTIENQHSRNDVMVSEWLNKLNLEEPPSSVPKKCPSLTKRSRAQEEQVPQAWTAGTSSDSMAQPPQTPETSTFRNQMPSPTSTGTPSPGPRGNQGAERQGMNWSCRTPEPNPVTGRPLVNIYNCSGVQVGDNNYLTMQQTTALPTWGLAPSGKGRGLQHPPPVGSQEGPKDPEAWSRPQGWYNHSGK

As to `CC[C@@H]1C(=O)N(C)c2cnc(Nc3ccc(C(=O)N[C@H]4CC[C@H](N5CCN(CC6CC6)CC5)CC4)cc3OC)nc2N1C(C)C` [VOLASERTIB], the Kd in experiment [1], in experiment [2], in experiment [3], in experiment [4], in experiment [5] and in experiment [6] was > 30 µM (inactive) in each case. Moreover, the Kd in experiment [7] was > 30 µM (inactive).

On to `Cc1ccc(S(=O)(=O)Nc2nc3ccccc3nc2Nc2ccc3nsnc3c2)cc1`, for which the Kd in experiment [8], in experiment [1], in experiment [2], in experiment [3], in experiment [4] and in experiment [5] was > 30 µM (inactive) throughout. Moreover, the Kd in experiment [6] and in experiment [7] was > 30 µM (inactive) each time.

Turning to `Cn1cc(-c2ccc(F)c(C(F)(F)F)c2)nc1C1CCN(c2ncnc3[nH]ncc23)CC1` [LY-2584702], the Kd in experiment [8], in experiment [1], in experiment [2], in experiment [3], in experiment [4] and in experiment [5] was > 30 µM (inactive) throughout. Moreover, the Kd in experiment [6] and in experiment [7] was > 30 µM (inactive) each time.

In the case of `CCn1c(-c2nonc2N)nc2c(C#CC(C)(C)O)ncc(OC[C@H]3CCCNC3)c21` [GSK-690693], the Kd in experiment [8], in experiment [2] and in experiment [6] was > 30 µM (inactive) in each case.

As for `Cc1cc(Nc2cc(N3CCN(C)CC3)nc(/C=C/c3ccccc3)n2)n[nH]1` [ENMD-2076], the Kd in experiment [8], in experiment [2], in experiment [5] and in experiment [6] was > 30 µM (inactive) throughout.

With `CNS(=O)(=O)Nc1nccc(Cc2c(C)c3ccc(Oc4ncccn4)cc3oc2=O)c1F` [AVUTOMETINIB], the Kd in experiment [8], in experiment [1], in experiment [2], in experiment [3], in experiment [4] and in experiment [6] was > 30 µM (inactive) throughout. Besides, the Kd in experiment [7] is > 30 µM (inactive).

In the case of `Nc1nc(N)c2nc(-c3cccc(O)c3)c(-c3cccc(O)c3)nc2n1` [TG100-115], the Kd in experiment [8] is > 30 µM (inactive); in experiment [2], > 30 µM (inactive); in experiment [6], 3.67 µM.

Take `CN1CCN(c2ccc3nc(-c4c(N)c5c(F)cccc5[nH]c4=O)[nH]c3c2)CC1` [DOVITINIB]: the Kd in experiment [8], in experiment [2] and in experiment [6] was > 30 µM (inactive) throughout.

As to `O=C(Nc1cccc(Cl)c1)Nc1ncc(CCNc2ncnc3ccsc23)s1` [SNS-314], the Kd in experiment [8], in experiment [1], in experiment [2], in experiment [4], in experiment [5] and in experiment [6] was > 30 µM (inactive) each time.

Regarding `CCc1cnn2c(NCc3ccc[n+]([O-])c3)cc(N3CCCC[C@H]3CCO)nc12` [DINACICLIB], the Kd in experiment [1], in experiment [2], in experiment [3], in experiment [4], in experiment [5] and in experiment [6] was > 30 µM (inactive) throughout. Also, the Kd in experiment [7] is > 30 µM (inactive).

Consider `C[C@@H](c1ccc2nccn2c1)n1nnc2ncc(-c3cnn(C)c3)nc21` [SAVOLITINIB], for which the Kd in experiment [8], in experiment [1], in experiment [2], in experiment [3], in experiment [4] and in experiment [6] was > 30 µM (inactive) throughout. For the same compound, the Kd in experiment [7] was > 30 µM (inactive).

Consider `Cc1nc(N)sc1-c1ccnc(Nc2ccc(N3CCOCC3)cc2)n1` [CYC-116], for which the Kd in experiment [8] was > 30 µM (inactive); in experiment [1], > 30 µM (inactive); in experiment [2] it was > 30 µM (inactive); in experiment [4], 0.007 µM; in experiment [5], > 30 µM (inactive); in experiment [6] it was 4.82 µM (active).

Take `CNC(=O)c1cc(Oc2ccc(NC(=O)Nc3ccc(Cl)c(C(F)(F)F)c3)c(F)c2)ccn1` [REGORAFENIB]: the Kd in experiment [1] was > 30 µM (inactive); in experiment [2], > 30 µM (inactive); in experiment [3], > 30 µM (inactive); in experiment [4], > 30 µM (inactive); in experiment [5] it was > 30 µM (inactive); in experiment [6], 0.368 µM (active). The Kd in experiment [7] is > 30 µM (inactive).

In the case of `Cc1cn(-c2cc(NC(=O)c3ccc(C)c(Nc4nccc(-c5cccnc5)n4)c3)cc(C(F)(F)F)c2)cn1` [NILOTINIB], the Kd was > 30 µM (inactive) in experiment [8], > 30 µM (inactive) in experiment [2] and 1.27 µM (active) in experiment [6].

`CC[C@H](Nc1ncnc2[nH]cnc12)c1nc2cccc(F)c2c(=O)n1-c1ccccc1` [IDELALISIB]: the Kd in experiment [1], in experiment [2], in experiment [3], in experiment [4], in experiment [5] and in experiment [6] was > 30 µM (inactive) in each case. In experiment [7], the Kd is > 30 µM (inactive).

Turning to `O=C(c1ccc(F)c(F)c1Nc1ccc(I)cc1F)N1CC(O)([C@@H]2CCCCN2)C1` [COBIMETINIB], the Kd in experiment [8], in experiment [1], in experiment [2], in experiment [3], in experiment [5] and in experiment [6] was > 30 µM (inactive) throughout. The Kd in experiment [7] was > 30 µM (inactive).
